Experimental data published in patent US20230011869A1 (Hoffmann-La Roche Inc., priority 2018, published 2023).
Where a name gives a salt, the structure may show the parent alone. Read-outs that look alike come from different tables or passages of the source.

System: Acinetobacter baumannii ATCC17961
Assay: Antimicrobial susceptibility testing: 90% growth inhibitory concentration (IC90) determination, Iso-Sensitest broth
Format: cell-based
Conditions: Acinetobacter baumannii, ATCC17961, 16 h, read-out: ATCC17961 IC90
How it was run: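 Twofold serial dilutions (e.g. 50 to 0.097 μM final) in Iso-Sensitest broth, inoculum 5×10^(5) CFU/ml, incubated at 35±2° C. OD600 read every 20 minutes over 16 h; IC90 derived from growth inhibition during logarithmic phase.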

[1] = 90% growth inhibitory concentration, Acinetobacter baumannii ATCC17961, Iso-Sensitest broth, OD 600 nm over 16 h

IC90 [1]	SMILES	IC90
72 nM	COc1ccc(-c2cnc3c(Nc4ccc(C(=O)N5CCC(C(=O)NCC(O)CN(C)C)CC5)c(C)c4)nccn23)c(F)c1F (stereo not drawn) [Example 89, 1-(4-((3-(2,3-difluoro-4-methoxyphenyl)imidazo[1,2-a]pyrazin-8-yl)amino)-2-methylbenzoyl)-N-(3-(dimethylamino)-2-hydroxypropyl)piperidine-4-carboxamide]	–
41 nM	COc1ccc(-c2cnc3c(Nc4ccc(C(=O)N5CCN(C(=O)[C@@H]6C[C@@H](O)CN6)CC5)c(C)c4)nccn23)c(F)c1F [Example 184, [4-[[3-(2,3-difluoro-4-methoxy-phenyl)imidazo[1,2-a]pyrazin-8-yl]amino]-2-methyl-phenyl]-[4-[(2S,4R)-4-hydroxypyrrolidine-2-carbonyl]piperazin-1-yl]methanone hydrochloride]	–
–	COc1cc(Nc2nccn3c(-c4ccc(OC)c(F)c4F)cnc23)ccc1C(=O)N1CCN(C(=O)C2CCNCC2)CC1 [Example 587, (4-(4-((3-(2,3-difluoro-4-methoxyphenyl)imidazo[1,2-a]pyrazin-8-yl)amino)-2-methoxybenzoyl)piperazin-1-yl)(piperidin-4-yl)methanone formate]	214 nM
175 nM	CCc1cc(Nc2nccn3c(-c4ccc(OC)c(F)c4F)cnc23)ccc1C(=O)N1CCNCC1 [Example 466]	–
583 nM	COc1ccc(-c2cnc3c(Nc4cc(C)c(C(=O)N5CCN(C(=O)[C@@H]6C[C@@H](O)CN6)CC5)c(Cl)c4)nccn23)c(F)c1F [Example 575, (4-(2-chloro-4-((3-(2,3-difluoro-4-methoxyphenyl)imidazo[1,2-a]pyrazin-8-yl)amino)-6-methylbenzoyl)piperazin-1-yl)((2S,4R)-4-hydroxypyrrolidin-2-yl)methanone dihydrochloride]	–
35 nM	Cc1cc(Nc2nccn3c(-c4ccc(OC(F)F)cc4)cnc23)ccc1C(=O)N1CCN(C(=O)C2CCNCC2)CC1 [Example 173, [4-[[3-[4-(difluoromethoxy)phenyl]imidazo[1,2-a]pyrazin-8-yl]amino]-2-methyl-phenyl]-[4-(piperidine-4-carbonyl)piperazin-1-yl]methanone hydrochloride]	–
